This is an account of results in patent US6919365B2, “Imidazolidinedione derivatives and use thereof as drugs” (Senju Pharmaceutical Co., Ltd., priority 2001, dated 2005).

The target in assay [1] is T1, recombinant human chymase (Homo sapiens, UniProt P23946).
T1 sequence (P23946 22-247): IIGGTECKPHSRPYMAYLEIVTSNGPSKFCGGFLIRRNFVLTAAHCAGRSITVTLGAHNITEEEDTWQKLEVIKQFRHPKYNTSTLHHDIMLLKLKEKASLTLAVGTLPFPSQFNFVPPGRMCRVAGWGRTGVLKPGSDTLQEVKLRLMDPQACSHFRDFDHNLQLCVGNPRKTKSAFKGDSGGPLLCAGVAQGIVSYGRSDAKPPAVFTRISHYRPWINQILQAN
Briefly: Chymase inhibition activity (fluorogenic substrate Suc-Ala-Ala-Pro-Phe-MCA). Type of assay: biochemical. Particulars: 30° C., 30 minutes. The protocol: The chymase inhibition activity was measured according to the method of Kato et al. (J. Biochem., Vol.103, pp820(1988)). That is, 72.5 μL of a solution adjusted so that the enzyme activity of recombinant human chymase (JP-A No.10-87567) became 2.3 μUnit with HEPES buffer, was added to 2.5 μL of a test substance dissolved in dimethyl sulfoxide (DMSO), a temperature was retained at 30° C. for 5 minutes, and 125 μL of 0.6 mM Suc-Ala-Ala-Pro-Phe-MCA (manufactured by Peptide Institute Inc.)/Tris buffer as a substrate was added to obtain a reaction solution. The reaction solution was set at a multi-well plate reader CYTOFLUOR Series 4000 (manufactured by Perceptive Biosystems), and a change in the fluorescent intensity was measured at 30° C. for 30 minutes with time (excitation wavelength 360 nm, detection wavelength 450 nm).
As a control, 2.5 μL of DMSO containing no test substance was used, and this was treated and measured similarly. As a blank, a Tris hydrochloric acid buffer was added instead of a chymase solution, and treated and measured similarly.
The chymase inhibition rate (%) was obtained by calculating a slope (S) of an approximation straight line for each test substance, a slope (C) of an approximation straight line for a control, a slope (Bs) of an approximation straight line for a blank of each test substance, and a slope (Bc) of approximation straight line for a blank of a control from a change in the fluorescent intensity, and calculating from the following equation. Inhibition rate (%)=[1−(S−Bs)/(C−Bc)]×100
(§1) Regarding the compounds of the present invention, each 50% inhibition concentration (IC50) was calculated from the chymase and tryptase inhibition activity obtained by the aforementioned method.

For assay [2], the target named is human lung tryptase. Briefly: Tryptase inhibition activity (fluorogenic substrate Boc-Val-Pro-Arg-MCA). Type of assay: biochemical. To be noted: pH7.1, 30° C., 30 minutes. The method, then:
Then, the tryptase inhibition activity was measured according to the method of Muramatsu et al. (Biol. Chem. Hoppe-Seyler, vol.369, pp617(1988)). That is, 62.5 μL of a solution adjusted so that the enzyme activity of human lung tryptase (manufactured by Sigma) became 7.9 μUnit with 0.1M phosphate buffer-1.5M NaCl (pH7.1), was added to 2.5 μL of a test substance dissolved in DMSO, a temperature was retained at 30° C. for 5 minutes, and 125 μL of 0.6mM Boc-Val-Pro-Arg-MCA. HCl (manufactured by BACHEM)/0.1M phosphate buffer (pH7.1) as a substrate was added to obtain a reaction solution. The reaction solution was set at a multi-well plate reader CYTOFLUOR Series 4000 (manufactured by Perceptive Biosystems), and a change in the fluorescent intensity was measured at 30° C. for 30 minutes with time (excitation wavelength 360 nm, detection wavelength 450 nm). As a control, 2.5 μL of DMSO containing no test substance was used, and treated and measured similarly. As a blank, 0.1M phosphate buffer-1.5M NaCl (pH7.1) was added in place of a tryptase solution, and treated and measured similarly.
A tryptase inhibition rate (%) was obtained by calculating a slope (S) of an approximation straight line for each test material, a slope (C) of an approximation straight line for a control, a slope (Bs) of an approximation straight line for a blank of each test substance, and a slope (Bc) of an approximation straight line for a blank of a control from a change in the fluorescent intensity, and calculating from the following equation. Inhibition rate (%)=[1−(S−Bs)/(C−Bc)]×100 Experimental Results
as §1

The test system of assay [3] is rat mast cells (intraperitoneal cell suspension, PEC). As to the kind of experiment: Rat mast cell histamine release inhibition test. To be noted: for Inhibition rate (%) of release of histamine from mast cells: phosphatidylserine and concanavalin A stimulated. Type of assay: cell-based. The method, then:
A rat was killed by exsanguinations under ether anesthesia, and 30 mL of a buffer for mast cells (150 mM NaCl, 3.7 mM KCl, 3.0 mM Na2HPO4, 1 mM CaCl2, 5.6 mM glucose) was injected intraperitoneally. An abdominal part was massaged for 90 seconds, and a suspension of intraperitoneal cell was taken. A suspension of an intraperitoneal cell collected from 5 animals was centrifuged at 100 G at 4° C. for 5 minutes, a buffer for mast cells was added, washed three times and, finally, adjusted so that the number of mast cells became 3 to 5×10^5 cells/mL (hereinafter, this solution is abbreviated as PEC).
Compound 5 was dissolved in DMSO to prepare a test drug solution at each concentration (final DMSO concentration 0.8%). 100 μL of the test drug solution was added to 400 μL of the prepared PEC, and pre-incubated at 37° C. for 15 minutes. After pre-incubation, each 50 μL of a solution of phosphatidylserine (10 μg/ml) and concanavalin A(15 μg/ml) which is a histamine-releasing substance was added, and further incubated for 20 minutes. 1.4 mL of an ice-cooled buffer for mast cells was added to stop the reaction, and centrifuged at 250 G at 4° C. for 10 minutes. An amount of the histamine supernatant was quantitated using a fluorescent method. That is, 20 μL of 1N NaOH was added to 40 μL of the supernatant, 20 μL of a 1% o-phthalaldehyde solution in methanol was further added, and allowed to stand at room temperature for 5 minutes. Thereafter, 20 μL of 3N hydrochloric acid was added, and the fluorescent intensity was measured at an excitation wavelength of 350 nm and a fluorescent wavelength of 450 nm to obtain an amount of histamine.
A histamine release inhibition rate (%) was calculated from the following equation: Inhibition rate (%)=[1−(S−B)/(C−B)]×100 • S: amount of histamine in the supernatant, C: amount of histamine in control, B: amount of histamine in blank Test Results

On to `CC1(c2ccccc2)C(=O)N(C(=O)c2cccc3ccccc23)C(=O)N1Cc1cccc(Cl)c1` (centres unmarked) [Compound 25, 1-(3-Chlorobenzyl)-5-methyl-3-naphthylcarbonyl-5-phenylimidazolidine-2,4-dione], for which the IC50 in assay [1] came out at 0.58 µM; in assay [2], 86 µM.

As to “5,5- Dimethyl-3-naphthylcarbonylimidazolidine-2,4-dione [Compound 8]”, the IC50 worked out at 30 µM in assay [1] and 3.2 µM in assay [2].

Take “1-Isobutyl-3-naphthylcarbonyl-5,5-diphenylimidazolidine -2,4-dione [Compound 23]”: the IC50 in assay [1] amounted to 0.28 µM; in assay [2] it was 4.4 µM.

As for `O=C1NC(c2ccccc2)(c2ccccc2)C(=O)N1C(=O)c1ccc2ccccc2c1` [Compound 1, 3-(2-Naphthylcarbonyl)-5,5-diphenylimidazolidine-2,4-dione], the 50% inhibitory concentration (IC50) in assay [1] was determined as 0.066 µM; in assay [2] it was 0.39 µM.

For the compound “1-(3-Chlorobenzyl)-5,5-dimethyl-3-naphthylcarbonylimidazolidine-2,4-dione [Compound 28]”, the IC50 in assay [1] and in assay [2] was 2.2 µM throughout.

With “Ethyl 2-(3-naphthylcarbonyl-2,4-dioxo-5,5-diphenylimidazolidinyl)acetate [Compound 3]”, the half-inhibitory concentration (IC50) in assay [1] turned out to be 1 µM; in assay [2] it was 0.93 µM.

Turning to “1-Methyl-3-naphthylcarbonyl-5,5-diphenylimidazolidine-2,4-dione [Compound 22]”, the figures for the IC50 in assay [1] and in assay [2] were 3.5 µM and 0.089 µM, respectively.

Turning to “5-Methyl-3-naphthylcarbonyl-2,4-dioxo-5-phenylimidazolidinylacetic acid [Compound 16]”, the results for the IC50 in assay [1] and in assay [2] were 0.91 µM and 1.8 µM, respectively.

Consider “tert-Butyl (5-methyl-3-naphthylcarbonyl-2,4-dioxo-5-phenylimidazolidinyl)acetate [Compound 14]”, for which the figures for the half-inhibitory concentration (IC50) in assay [1] and in assay [2] were 0.26 µM and 1.6 µM, respectively.

Turning to `CC1(c2ccccc2)NC(=O)N(C(=O)c2cccc3ccccc23)C1=O` (centres unmarked) [Compound 7], the half-maximal inhibitory concentration (IC50) came to 6.5 µM in assay [1] and 0.37 µM in assay [2].

Consider “3-Naphthylcarbonyl-2,4-dioxo-5,5-diphenylimidazolidinylacetic acid [Compound 5]”, for which the IC50 in assay [1] was determined as 1.2 µM; in assay [2] it was 0.97 µM. Besides, in assay [3] (8 to 100 μM), the “Inhibition of release of histamine (in words)” value is “inhibited release of histamine concentration-dependently”. Also, the “Inhibition rate (%) of release of histamine from mast cells” value in assay [3] (test drug concentration 8 μM) is 28%; in assay [3] (test drug concentration 40 μM), 59%; in assay [3] (test drug concentration 80 μM) it was 78%; in assay [3] (test drug concentration 100 μM) it was 83%.

As to “3-Naphthylcarbonyl-5,5-diphenylimidazolidine-2,4-dione [Compound 2]”, the IC50 was 0.34 µM in assay [1] and 0.046 µM in assay [2].

Take “3-Naphthylcarbonyl-1,3-diazaspiro[4.5]decane-2,4-dione [Compound 34]”: the IC50 came out at 32 µM in assay [1] and 0.28 µM in assay [2].

Consider “Tert-butyl (5,5-dimethyl-3-naphthylcarbonyl-2,4-dioxoimidazolidinyl)acetate [Compound 13]”, for which the IC50 came out at 2.7 µM in assay [1] and 1.6 µM in assay [2].

“5,5-Dimethyl-3-naphthylcarbonyl-1-(2-oxo-2-phenylethyl)imidazolidine-2,4-dione [Compound 30]”: the IC50 in assay [1] was found to be 3.3 µM; in assay [2], 7.2 µM.

For the compound “4-(5,5-Dimethyl-3-naphthylcarbonyl-2,4-dioxoimidazolidinylmethyl)benzonitrile [Compound 27]”, the IC50 in assay [1] worked out at 0.54 µM; in assay [2], 7.1 µM.

On to “5,5-Dimethyl-3-naphthylcarbonyl-1,3-oxazolidine-2,4-dione [Compound 9]”, for which the figures for the IC50 in assay [1] and in assay [2] were 0.73 µM and 1 µM, respectively.

On to “5,5-Dimethyl-1,3-bisnaphthylcarbonyl imidazolidine-2,4-dione [Compound 33]”, for which the results for the IC50 in assay [1] and in assay [2] were 1.8 µM and 1.5 µM, respectively.

For orientation: IC50 means the concentration needed to halve the response being measured.
